In ChEMBL document CHEMBL1909046, “DrugMatrix in vitro pharmacology data”:

Tests used:
[1] = biological target: Sodium-dependent noradrenaline transporter (Homo sapiens, UniProt P23975); experiment: DRUGMATRIX: Norepinephrine Transporter radioligand binding (ligand: [125I] RTI-55); assay type: cell membranes, MDCK, Membrane; conditions: mdck; Not Active = under 50% inhibition at 10 µM
[2] = biological target: T1, Type-2 angiotensin II receptor (Homo sapiens, UniProt P50052); assay type: cell-based; conditions: cho-k1; further: in other assays of this panel Not Active means under 50% inhibition at 10 µM
T1 sequence (P50052 whole entry): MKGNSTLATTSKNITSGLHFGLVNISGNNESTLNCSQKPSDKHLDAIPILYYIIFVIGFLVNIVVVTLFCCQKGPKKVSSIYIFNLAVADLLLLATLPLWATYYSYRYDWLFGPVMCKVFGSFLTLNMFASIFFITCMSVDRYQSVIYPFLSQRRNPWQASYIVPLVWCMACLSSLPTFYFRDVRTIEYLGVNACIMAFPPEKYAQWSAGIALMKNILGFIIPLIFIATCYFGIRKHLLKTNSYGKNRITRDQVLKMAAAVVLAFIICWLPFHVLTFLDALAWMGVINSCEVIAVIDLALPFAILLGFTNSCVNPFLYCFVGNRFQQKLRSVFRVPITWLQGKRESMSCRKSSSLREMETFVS

B2 bradykinin receptor = biological target: T2, B2 bradykinin receptor (Homo sapiens, UniProt P30411); assay type: cell membranes, Membrane; conditions: chem-1; further: in other assays of this panel Not Active means under 50% inhibition at 10 µM
T2 sequence (P30411 whole entry): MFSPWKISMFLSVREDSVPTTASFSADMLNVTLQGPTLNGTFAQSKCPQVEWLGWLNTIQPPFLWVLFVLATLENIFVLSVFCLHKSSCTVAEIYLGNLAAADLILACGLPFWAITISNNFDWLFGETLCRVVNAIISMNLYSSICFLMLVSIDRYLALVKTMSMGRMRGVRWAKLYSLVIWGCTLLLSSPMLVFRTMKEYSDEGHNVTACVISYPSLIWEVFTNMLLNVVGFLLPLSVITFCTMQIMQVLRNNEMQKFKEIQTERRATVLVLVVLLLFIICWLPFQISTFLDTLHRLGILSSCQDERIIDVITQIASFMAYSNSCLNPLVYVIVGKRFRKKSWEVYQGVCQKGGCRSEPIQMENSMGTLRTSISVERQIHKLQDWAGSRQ

Thromboxane-A synthase = biological target: T3, Thromboxane-A synthase (Homo sapiens, UniProt P24557); experiment: biochemical; assay type: tissue-based, Platelet; conditions: platelet;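 further: enzyme inhibition assay with PGH2 supplied as substrate; in other assays of this panel Not Active means under 50% inhibition at 10 µM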
T3 sequence (P24557 whole entry): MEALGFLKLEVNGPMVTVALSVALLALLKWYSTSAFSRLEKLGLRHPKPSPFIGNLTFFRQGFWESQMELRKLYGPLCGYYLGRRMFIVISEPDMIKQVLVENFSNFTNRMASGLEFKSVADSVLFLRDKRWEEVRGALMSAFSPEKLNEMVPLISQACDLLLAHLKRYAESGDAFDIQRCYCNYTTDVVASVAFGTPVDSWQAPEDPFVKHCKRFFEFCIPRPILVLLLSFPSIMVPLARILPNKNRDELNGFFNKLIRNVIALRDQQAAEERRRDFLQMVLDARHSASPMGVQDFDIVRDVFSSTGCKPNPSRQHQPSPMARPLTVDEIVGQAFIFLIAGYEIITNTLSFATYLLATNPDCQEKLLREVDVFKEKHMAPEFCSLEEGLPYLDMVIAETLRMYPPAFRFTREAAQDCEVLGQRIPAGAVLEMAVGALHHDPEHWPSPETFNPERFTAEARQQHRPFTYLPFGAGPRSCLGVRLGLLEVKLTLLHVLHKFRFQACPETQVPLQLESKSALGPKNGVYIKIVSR

Cannabinoid receptor 1 = Cannabinoid receptor 1 (Homo sapiens, UniProt P21554); assay type: cell membranes, Membrane; conditions: chem-1; further: in other assays of this panel Not Active means under 50% inhibition at 10 µM
Carbonic anhydrase 2 = Carbonic anhydrase 2 (Homo sapiens, UniProt P00918); experiment: DRUGMATRIX: Carbonic Anhydrase II enzyme inhibition (substrate: 4-Nitrophenyl acetate (4-NPA)); assay type: tissue-based, Erythrocyte; conditions: erythrocyte; Not Active = under 50% inhibition at 10 µM
[3] = biological target: C-C chemokine receptor type 5 (Homo sapiens, UniProt P51681); assay type: cell membranes, Membrane; conditions: hek293; further: in other assays of this panel Not Active means under 50% inhibition at 10 µM
[4] = biological target: Prostaglandin G/H synthase 1 (Homo sapiens, UniProt P23219); experiment: biochemical; assay type: tissue-based, Platelet; conditions: platelet
Melanocortin receptor 5 = Melanocortin receptor 5 (Homo sapiens, UniProt P33032); assay type: cell membranes, HEK293, Membrane; conditions: hek293; further: in other assays of this panel Not Active means under 50% inhibition at 10 µM
[5] = biological target: T4, Amine oxidase [flavin-containing] A (Homo sapiens, UniProt P21397); experiment: DRUGMATRIX: Monoamine Oxidase MAO-A enzyme inhibition (substrate: Kynuramine); design: species or system BTI-TN-5B1-4; conditions: bti-tn-5b1-4; Not Active = under 50% inhibition at 10 µM
T4 sequence (P21397 whole entry): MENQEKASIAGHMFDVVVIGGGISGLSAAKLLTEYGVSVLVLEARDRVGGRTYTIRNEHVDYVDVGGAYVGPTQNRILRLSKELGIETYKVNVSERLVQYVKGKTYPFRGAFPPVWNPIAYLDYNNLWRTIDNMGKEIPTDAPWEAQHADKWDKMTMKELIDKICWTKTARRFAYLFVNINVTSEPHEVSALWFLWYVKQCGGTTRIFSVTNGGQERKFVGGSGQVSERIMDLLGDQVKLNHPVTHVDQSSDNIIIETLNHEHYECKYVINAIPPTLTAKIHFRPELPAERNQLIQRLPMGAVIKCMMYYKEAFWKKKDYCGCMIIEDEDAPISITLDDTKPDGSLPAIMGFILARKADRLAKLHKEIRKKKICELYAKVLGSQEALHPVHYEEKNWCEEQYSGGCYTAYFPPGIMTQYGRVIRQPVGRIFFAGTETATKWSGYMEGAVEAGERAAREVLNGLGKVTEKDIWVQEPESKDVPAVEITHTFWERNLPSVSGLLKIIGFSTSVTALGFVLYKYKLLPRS

[6] = biological target: Delta-type opioid receptor (Homo sapiens, UniProt P41143); assay type: cell membranes, HEK293, Membrane; conditions: hek293; further: in other assays of this panel Not Active means under 50% inhibition at 10 µM
[7] = biological target: Kappa-type opioid receptor (Homo sapiens, UniProt P41145); experiment: DRUGMATRIX: Opiate kappa (OP2, KOP) radioligand binding (ligand: [3H] Diprenorphine); assay type: cell membranes, HEK293, Membrane; conditions: hek293; Not Active = under 50% inhibition at 10 µM
[8] = DRUGMATRIX: Phosphodiesterase PDE3 enzyme inhibition (substrate: [3H]cAMP + cAMP); assay type: tissue-based, Homo sapiens; conditions: platelet; Not Active = under 50% inhibition at 10 µM
[9] = biological target: Protein kinase C alpha type (Homo sapiens, UniProt P17252); assay type: cell-based; conditions: sf9
[10] = biological target: Epidermal growth factor receptor (Homo sapiens, UniProt P00533); experiment: DRUGMATRIX: Protein Tyrosine Kinase, EGF Receptor enzyme inhibition (substrate: Poly(Glu:Tyr)); assay type: cell-based, Insect cells; conditions: insect cells; Not Active = under 50% inhibition at 10 µM
Cytochrome P450 2C9 = Cytochrome P450 2C9 (Homo sapiens, UniProt P11712); conditions: bti-tn-5b1-4; further: in other assays of this panel Not Active means under 50% inhibition at 10 µM
Sequence of Cytochrome P450 2C9 (P11712 whole entry): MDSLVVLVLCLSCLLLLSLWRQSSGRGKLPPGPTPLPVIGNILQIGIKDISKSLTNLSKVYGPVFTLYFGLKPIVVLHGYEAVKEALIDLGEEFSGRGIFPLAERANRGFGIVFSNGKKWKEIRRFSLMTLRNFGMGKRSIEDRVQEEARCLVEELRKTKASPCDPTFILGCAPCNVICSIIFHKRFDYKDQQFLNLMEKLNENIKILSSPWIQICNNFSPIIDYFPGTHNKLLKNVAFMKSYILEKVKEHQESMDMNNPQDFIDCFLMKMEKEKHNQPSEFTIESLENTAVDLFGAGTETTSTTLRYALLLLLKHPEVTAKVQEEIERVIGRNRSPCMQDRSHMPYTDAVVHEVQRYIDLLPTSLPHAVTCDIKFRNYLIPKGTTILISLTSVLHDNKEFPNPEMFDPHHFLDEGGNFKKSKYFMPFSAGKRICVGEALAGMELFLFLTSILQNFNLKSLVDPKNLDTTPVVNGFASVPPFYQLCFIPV

Sequence of Melanocortin receptor 5 (P33032 whole entry): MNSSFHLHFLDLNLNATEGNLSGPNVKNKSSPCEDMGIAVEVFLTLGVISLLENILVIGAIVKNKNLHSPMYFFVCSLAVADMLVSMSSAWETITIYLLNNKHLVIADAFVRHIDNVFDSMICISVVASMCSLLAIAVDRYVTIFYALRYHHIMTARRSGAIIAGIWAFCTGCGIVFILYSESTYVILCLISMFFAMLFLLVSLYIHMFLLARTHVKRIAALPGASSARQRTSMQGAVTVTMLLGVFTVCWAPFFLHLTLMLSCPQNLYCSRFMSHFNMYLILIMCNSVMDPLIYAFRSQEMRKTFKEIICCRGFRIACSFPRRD
Sequence of Sodium-dependent noradrenaline transporter (P23975 whole entry): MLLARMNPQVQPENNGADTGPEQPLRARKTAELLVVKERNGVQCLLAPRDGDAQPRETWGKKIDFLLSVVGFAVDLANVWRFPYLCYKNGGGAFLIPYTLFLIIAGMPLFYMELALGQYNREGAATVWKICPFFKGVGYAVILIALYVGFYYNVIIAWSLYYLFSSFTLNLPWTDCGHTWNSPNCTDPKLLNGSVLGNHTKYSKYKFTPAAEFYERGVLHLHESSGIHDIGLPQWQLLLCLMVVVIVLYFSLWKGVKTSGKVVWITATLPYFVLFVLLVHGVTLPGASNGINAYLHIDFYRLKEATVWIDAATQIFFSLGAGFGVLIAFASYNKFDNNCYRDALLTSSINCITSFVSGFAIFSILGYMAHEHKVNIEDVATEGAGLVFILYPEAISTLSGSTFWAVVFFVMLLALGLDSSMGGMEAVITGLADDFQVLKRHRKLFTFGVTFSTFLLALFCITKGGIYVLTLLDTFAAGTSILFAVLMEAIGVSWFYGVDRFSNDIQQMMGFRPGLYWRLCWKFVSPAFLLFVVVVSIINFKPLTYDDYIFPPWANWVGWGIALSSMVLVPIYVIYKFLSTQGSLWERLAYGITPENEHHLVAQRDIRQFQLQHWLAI
Sequence of Delta-type opioid receptor (P41143 whole entry): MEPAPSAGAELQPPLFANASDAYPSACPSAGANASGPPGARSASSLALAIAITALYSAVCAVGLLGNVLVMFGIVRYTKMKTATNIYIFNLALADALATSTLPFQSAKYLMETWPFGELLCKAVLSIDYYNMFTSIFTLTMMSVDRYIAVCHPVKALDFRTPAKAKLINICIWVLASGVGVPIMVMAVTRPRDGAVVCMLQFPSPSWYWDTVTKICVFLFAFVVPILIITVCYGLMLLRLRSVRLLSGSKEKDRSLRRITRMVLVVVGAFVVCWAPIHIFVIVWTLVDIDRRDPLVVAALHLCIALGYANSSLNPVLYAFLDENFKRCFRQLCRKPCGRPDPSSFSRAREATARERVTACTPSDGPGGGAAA
Sequence of C-C chemokine receptor type 5 (P51681 whole entry): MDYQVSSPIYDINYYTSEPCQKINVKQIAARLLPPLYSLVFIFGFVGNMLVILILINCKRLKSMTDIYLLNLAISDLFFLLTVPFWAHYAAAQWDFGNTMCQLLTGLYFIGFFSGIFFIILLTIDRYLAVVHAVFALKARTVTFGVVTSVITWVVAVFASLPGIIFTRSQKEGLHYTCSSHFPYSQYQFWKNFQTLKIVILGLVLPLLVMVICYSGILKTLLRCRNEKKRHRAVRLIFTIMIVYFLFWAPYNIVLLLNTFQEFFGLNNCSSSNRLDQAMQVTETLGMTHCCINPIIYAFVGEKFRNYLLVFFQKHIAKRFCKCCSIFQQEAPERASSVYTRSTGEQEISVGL
Sequence of Epidermal growth factor receptor (P00533 whole entry): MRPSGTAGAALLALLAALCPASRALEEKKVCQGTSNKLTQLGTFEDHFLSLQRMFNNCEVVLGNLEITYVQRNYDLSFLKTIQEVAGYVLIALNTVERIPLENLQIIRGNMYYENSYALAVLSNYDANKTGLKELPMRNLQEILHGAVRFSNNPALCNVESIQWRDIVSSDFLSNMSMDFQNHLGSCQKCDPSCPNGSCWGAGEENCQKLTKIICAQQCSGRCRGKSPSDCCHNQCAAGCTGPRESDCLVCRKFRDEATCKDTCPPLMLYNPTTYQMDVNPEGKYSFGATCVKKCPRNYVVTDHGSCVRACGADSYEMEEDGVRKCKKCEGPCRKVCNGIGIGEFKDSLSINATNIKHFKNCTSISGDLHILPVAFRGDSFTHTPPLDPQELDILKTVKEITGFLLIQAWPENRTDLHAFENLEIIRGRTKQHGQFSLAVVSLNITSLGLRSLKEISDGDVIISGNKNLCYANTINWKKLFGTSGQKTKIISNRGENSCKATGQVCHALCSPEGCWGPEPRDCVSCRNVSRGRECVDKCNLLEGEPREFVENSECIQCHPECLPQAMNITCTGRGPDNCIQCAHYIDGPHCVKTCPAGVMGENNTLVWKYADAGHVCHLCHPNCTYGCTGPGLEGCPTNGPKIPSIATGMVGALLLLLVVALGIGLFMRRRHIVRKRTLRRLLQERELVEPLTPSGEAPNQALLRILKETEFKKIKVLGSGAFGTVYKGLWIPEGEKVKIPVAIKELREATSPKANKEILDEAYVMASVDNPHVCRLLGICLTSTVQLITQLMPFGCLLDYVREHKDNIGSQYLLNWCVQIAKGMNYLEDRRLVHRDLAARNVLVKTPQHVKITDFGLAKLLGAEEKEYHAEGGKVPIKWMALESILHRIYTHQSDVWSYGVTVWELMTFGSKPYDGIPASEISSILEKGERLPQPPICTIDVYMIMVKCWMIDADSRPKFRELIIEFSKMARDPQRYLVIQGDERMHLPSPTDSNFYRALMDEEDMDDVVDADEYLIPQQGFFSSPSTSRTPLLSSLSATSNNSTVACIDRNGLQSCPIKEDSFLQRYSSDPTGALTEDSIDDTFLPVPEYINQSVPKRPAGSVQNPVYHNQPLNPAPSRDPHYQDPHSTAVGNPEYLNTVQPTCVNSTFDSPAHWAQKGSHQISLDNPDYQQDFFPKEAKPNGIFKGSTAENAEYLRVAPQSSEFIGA
Sequence of Kappa-type opioid receptor (P41145 whole entry): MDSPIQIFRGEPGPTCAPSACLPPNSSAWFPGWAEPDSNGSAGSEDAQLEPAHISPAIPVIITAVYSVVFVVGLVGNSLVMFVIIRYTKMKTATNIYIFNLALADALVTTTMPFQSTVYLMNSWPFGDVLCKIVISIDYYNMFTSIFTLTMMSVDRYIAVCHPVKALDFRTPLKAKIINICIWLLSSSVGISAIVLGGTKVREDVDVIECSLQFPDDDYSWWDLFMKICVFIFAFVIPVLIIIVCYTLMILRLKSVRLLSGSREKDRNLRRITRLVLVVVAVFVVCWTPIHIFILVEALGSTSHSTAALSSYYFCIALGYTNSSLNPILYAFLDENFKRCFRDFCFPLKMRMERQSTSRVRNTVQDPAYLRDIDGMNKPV
Sequence of Cannabinoid receptor 1 (P21554 whole entry): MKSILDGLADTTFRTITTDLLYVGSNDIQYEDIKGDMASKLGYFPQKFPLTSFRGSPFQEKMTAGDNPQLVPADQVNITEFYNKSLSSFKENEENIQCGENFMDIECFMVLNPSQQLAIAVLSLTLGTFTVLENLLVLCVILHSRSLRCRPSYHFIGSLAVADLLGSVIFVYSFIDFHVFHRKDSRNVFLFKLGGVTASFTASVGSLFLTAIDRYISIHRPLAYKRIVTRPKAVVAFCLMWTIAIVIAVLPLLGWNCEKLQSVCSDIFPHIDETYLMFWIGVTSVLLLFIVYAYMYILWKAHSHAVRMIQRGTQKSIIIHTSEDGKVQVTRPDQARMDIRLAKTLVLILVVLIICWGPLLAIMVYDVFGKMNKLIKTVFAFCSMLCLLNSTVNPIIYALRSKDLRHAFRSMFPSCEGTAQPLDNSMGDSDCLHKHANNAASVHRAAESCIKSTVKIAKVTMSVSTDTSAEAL

CC1(C)[C@@H](O[C@H]2O[C@H](C(=O)O)[C@@H](O)[C@H](O)[C@H]2O[C@@H]2O[C@H](C(=O)O)[C@@H](O)[C@H](O)[C@H]2O)CC[C@]2(C)[C@H]3C(=O)C=C4[C@@H]5C[C@@](C)(C(=O)O)CC[C@]5(C)CC[C@@]4(C)[C@]3(C)CC[C@@H]12 [GLYCYRRHIZIN]
Not Active: IC50 [1] | IC50 [2] | IC50 (B2 bradykinin receptor) | IC50 (Thromboxane-A synthase) | IC50 (Cannabinoid receptor 1) | IC50 (Carbonic anhydrase 2) | IC50 [3] | IC50 [4] | IC50 (Melanocortin receptor 5) | IC50 [5] | IC50 [6] | IC50 [7] | IC50 [8] | Ki [8] | IC50 [9] | IC50 [10] | IC50 (Cytochrome P450 2C9) | Ki (Cytochrome P450 2C9)

CC1(C)S[C@@H]2[C@H](NC(=O)[C@H](N)c3ccc(O)cc3)C(=O)N2[C@H]1C(=O)O [AMOXICILLIN]
Not Active: IC50 [1] | IC50 [2] | IC50 (B2 bradykinin receptor) | IC50 (Thromboxane-A synthase) | IC50 (Cannabinoid receptor 1) | IC50 (Carbonic anhydrase 2) | IC50 [3] | IC50 [4] | IC50 (Melanocortin receptor 5) | IC50 [5] | IC50 [6] | IC50 [7] | IC50 [8] | Ki [8] | IC50 [9] | IC50 [10] | IC50 (Cytochrome P450 2C9) | Ki (Cytochrome P450 2C9)

COc1ccc([C@@H]2Sc3ccccc3N(CCN(C)C)C(=O)[C@@H]2OC(C)=O)cc1 [DILTIAZEM]
Not Active: IC50 [1] | IC50 [2] | IC50 (B2 bradykinin receptor) | IC50 (Thromboxane-A synthase) | IC50 (Cannabinoid receptor 1) | IC50 (Carbonic anhydrase 2) | IC50 [3] | IC50 [4] | IC50 (Melanocortin receptor 5) | IC50 [5] | IC50 [6] | IC50 [7] | IC50 [8] | Ki [8] | IC50 [9] | IC50 [10] | IC50 (Cytochrome P450 2C9) | Ki (Cytochrome P450 2C9)

CC(=O)[C@@]1(O)CC[C@H]2[C@@H]3C[C@H](C)C4=CC(=O)C=C[C@]4(C)[C@@]3(F)[C@@H](O)C[C@@]21C [FLUOROMETHOLONE]
Not Active: IC50 [1] | IC50 [2] | IC50 (B2 bradykinin receptor) | IC50 (Thromboxane-A synthase) | IC50 (Cannabinoid receptor 1) | IC50 (Carbonic anhydrase 2) | IC50 [3] | IC50 [4] | IC50 (Melanocortin receptor 5) | IC50 [5] | IC50 [6] | IC50 [7] | IC50 [8] | Ki [8] | IC50 [9] | IC50 [10] | IC50 (Cytochrome P450 2C9) | Ki (Cytochrome P450 2C9)

O=c1[nH]cc(F)c(=O)[nH]1 [FLUOROURACIL]
Not Active: IC50 [1] | IC50 [2] | IC50 (B2 bradykinin receptor) | IC50 (Thromboxane-A synthase) | IC50 (Cannabinoid receptor 1) | IC50 (Carbonic anhydrase 2) | IC50 [3] | IC50 [4] | IC50 (Melanocortin receptor 5) | IC50 [5] | IC50 [6] | IC50 [7] | IC50 [8] | Ki [8] | IC50 [9] | IC50 [10] | IC50 (Cytochrome P450 2C9) | Ki (Cytochrome P450 2C9)

CC(C)(Oc1ccc(CCNC(=O)c2ccc(Cl)cc2)cc1)C(=O)O [BEZAFIBRATE]
Not Active: IC50 [1] | IC50 [2] | IC50 (B2 bradykinin receptor) | IC50 (Thromboxane-A synthase) | IC50 (Cannabinoid receptor 1) | IC50 (Carbonic anhydrase 2) | IC50 [3] | IC50 [4] | IC50 (Melanocortin receptor 5) | IC50 [5] | IC50 [6] | IC50 [7] | IC50 [8] | Ki [8] | IC50 [9] | IC50 [10] | IC50 (Cytochrome P450 2C9) | Ki (Cytochrome P450 2C9)

Nc1nc(=O)[nH]cc1F [FLUCYTOSINE]
Not Active: IC50 [1] | IC50 [2] | IC50 (B2 bradykinin receptor) | IC50 (Thromboxane-A synthase) | IC50 (Cannabinoid receptor 1) | IC50 (Carbonic anhydrase 2) | IC50 [3] | IC50 [4] | IC50 (Melanocortin receptor 5) | IC50 [5] | IC50 [6] | IC50 [7] | IC50 [8] | Ki [8] | IC50 [9] | IC50 [10] | IC50 (Cytochrome P450 2C9) | Ki (Cytochrome P450 2C9)

CC1(C)S[C@@H]2[C@H](NC(=O)[C@H](NC(=O)N3CCNC3=O)c3ccccc3)C(=O)N2[C@H]1C(=O)O [AZLOCILLIN]
Not Active: IC50 [1] | IC50 [2] | IC50 (B2 bradykinin receptor) | IC50 (Thromboxane-A synthase) | IC50 (Cannabinoid receptor 1) | IC50 (Carbonic anhydrase 2) | IC50 [3] | IC50 [4] | IC50 (Melanocortin receptor 5) | IC50 [5] | IC50 [6] | IC50 [7] | IC50 [8] | Ki [8] | IC50 [9] | IC50 [10] | IC50 (Cytochrome P450 2C9) | Ki (Cytochrome P450 2C9)
